Data as given in ChEMBL document CHEMBL1201862, “PubChem BioAssay data set” (2004).
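Results reflect a 48-hour exposure of cells in 96-well plates to compound at five concentrations. The concentration for 50% growth inhibition is given as GI50.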 The source made the active and inactive calls. No stated cut-off is given here; in the data, active = GI50 up to about 1.1 µM and inactive = higher.

Tests used:
Experiment in all cases: NCI tumour cell line growth inhibition, 48 h
NCI-H522 = system: NCI-H522
ACHN = system: ACHN
EKVX = system: EKVX
TK-10 = system: TK-10
OVCAR-4 = system: OVCAR-4
OVCAR-3 = system: OVCAR-3
RPMI-8226 = system: RPMI-8226
A549 = system: A549
SW-620 = system: SW-620
COLO 205 = system: COLO 205
UO-31 = system: UO-31
SK-MEL-5 = system: SK-MEL-5
UACC-62 = system: UACC-62
NCI-H226 = system: NCI-H226
786-0 = system: 786-0
NCI-H23 = system: NCI-H23

Measured: GI50

CN(c1ccccc1)c1nc(=[N+]2CCCC2)ss1.[O-][Cl+3]([O-])([O-])[O-]
inactive: NCI-H522 1.7 µM | ACHN > 100 µM | EKVX > 100 µM | TK-10 > 100 µM | OVCAR-4 > 100 µM | OVCAR-3 > 100 µM | RPMI-8226 > 100 µM | A549 > 100 µM | SW-620 > 100 µM | COLO 205 11.1 µM | UO-31 > 100 µM | SK-MEL-5 > 100 µM | UACC-62 > 100 µM | NCI-H226 > 100 µM | 786-0 6.5 µM

COc1cccc(/C=C2\C(=O)N(C(=O)c3ccc(NC(C)=O)cc3)N=C2C)c1
inactive: NCI-H522 > 100 µM | ACHN > 100 µM | EKVX > 100 µM | TK-10 > 100 µM | OVCAR-4 > 100 µM | OVCAR-3 > 100 µM | A549 > 100 µM | SW-620 > 100 µM | COLO 205 > 100 µM | UO-31 > 100 µM | SK-MEL-5 56.1 µM | NCI-H23 > 100 µM | NCI-H226 > 100 µM | 786-0 > 100 µM

COC(=O)C1(c2ccc(OC)cc2)NC(c2ccccc2)C2C(=O)N(c3ccc(OC)cc3)C(=O)C21 (centres undefined)
inactive: NCI-H522 > 100 µM | ACHN > 100 µM | EKVX > 100 µM | TK-10 > 100 µM | OVCAR-4 > 100 µM | RPMI-8226 > 100 µM | A549 > 100 µM | SW-620 > 100 µM | COLO 205 > 100 µM | UO-31 > 100 µM | SK-MEL-5 > 100 µM | UACC-62 > 100 µM | NCI-H23 > 100 µM | 786-0 > 100 µM

CCOC(=O)[C@H]1Nc2ccc(C)cc2C2c3ccccc3CC21 (some centres undefined)
inactive: NCI-H522 > 100 µM | ACHN > 100 µM | EKVX > 100 µM | TK-10 > 100 µM | OVCAR-4 > 100 µM | OVCAR-3 > 100 µM | RPMI-8226 > 100 µM | A549 > 100 µM | SW-620 > 100 µM | COLO 205 > 100 µM | UO-31 > 100 µM | SK-MEL-5 > 100 µM | UACC-62 > 100 µM | NCI-H23 > 100 µM | NCI-H226 > 100 µM | 786-0 > 100 µM

OC12CCC3(O)c4ccccc4C3C1c1ccccc12 (centres undefined)
inactive: NCI-H522 > 100 µM | ACHN > 100 µM | EKVX > 100 µM | TK-10 > 100 µM | OVCAR-4 > 100 µM | RPMI-8226 > 100 µM | A549 > 100 µM | SW-620 > 100 µM | COLO 205 > 100 µM | UO-31 > 100 µM | SK-MEL-5 > 100 µM | UACC-62 > 100 µM | NCI-H23 > 100 µM | NCI-H226 > 100 µM | 786-0 > 100 µM
